Reference: patent US7135466B2 (Kirin Beer Kabushiki Kaisha, priority 1999, dated 2006)
Like-named read-outs stand apart in the source and are kept apart here.

Legend:
PDGF-Ra = molecular target: T1, PDGF-Ra (Homo sapiens, UniProt P16234); assay: Inhibitory activity against PDGF-Ra phosphorylation by PDGF-AA stimulation using G292; format: cell-based; settings: for IC50: > means inhibition at indicated concentration not more than 50%, < and << not less than 50%, read-out: PDGF (E) IC50; for inhibition at 0.1 µM: G292, at 100 nM, read-out: PDGF (E) inhibition (%) at 100 nM
T1 construct: host or cells: G-292 human osteosarcoma cells
T1 sequence (P16234 24-1089): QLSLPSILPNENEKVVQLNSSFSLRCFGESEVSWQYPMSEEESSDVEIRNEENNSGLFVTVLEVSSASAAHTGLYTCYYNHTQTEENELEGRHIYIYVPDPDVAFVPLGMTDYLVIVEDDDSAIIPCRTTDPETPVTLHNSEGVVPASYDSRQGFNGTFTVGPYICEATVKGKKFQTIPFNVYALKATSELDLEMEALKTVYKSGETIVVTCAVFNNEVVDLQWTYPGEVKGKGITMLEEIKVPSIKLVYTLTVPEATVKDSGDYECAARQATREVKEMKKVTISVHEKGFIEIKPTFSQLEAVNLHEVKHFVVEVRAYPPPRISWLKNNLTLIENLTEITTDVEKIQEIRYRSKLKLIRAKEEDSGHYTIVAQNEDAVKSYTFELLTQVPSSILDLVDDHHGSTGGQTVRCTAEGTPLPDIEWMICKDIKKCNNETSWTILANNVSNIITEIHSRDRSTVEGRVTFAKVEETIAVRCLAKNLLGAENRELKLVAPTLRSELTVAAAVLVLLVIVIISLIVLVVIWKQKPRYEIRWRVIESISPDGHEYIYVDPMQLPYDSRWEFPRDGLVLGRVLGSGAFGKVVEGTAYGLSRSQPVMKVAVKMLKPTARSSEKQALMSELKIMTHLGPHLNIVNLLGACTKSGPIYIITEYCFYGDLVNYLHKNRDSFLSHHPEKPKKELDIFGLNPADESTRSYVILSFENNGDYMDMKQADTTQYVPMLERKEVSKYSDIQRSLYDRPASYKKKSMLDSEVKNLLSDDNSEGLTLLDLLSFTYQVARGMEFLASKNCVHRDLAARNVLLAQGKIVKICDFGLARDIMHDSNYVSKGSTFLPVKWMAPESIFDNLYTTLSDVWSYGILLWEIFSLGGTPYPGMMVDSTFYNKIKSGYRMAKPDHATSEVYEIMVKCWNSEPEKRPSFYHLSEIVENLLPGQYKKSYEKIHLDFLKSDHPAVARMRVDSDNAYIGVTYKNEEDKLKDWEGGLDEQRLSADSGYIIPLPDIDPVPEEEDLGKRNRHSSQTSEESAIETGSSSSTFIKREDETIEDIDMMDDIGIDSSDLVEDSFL
Procedure, shortened: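 G-292 human osteosarcoma cells, serum-starved overnight in 0.1% FBS, were pretreated with compound in DMSO for 1 hr at 37 °C, then stimulated with 50 ng/ml PDGF-AA for 5 min. Lysates were captured on anti-phosphotyrosine PY-20 plates and probed with anti-PDGF-Ra plus HRP secondary; absorbance read at 450 nm.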

c-kit = molecular target: T2, c-kit (Homo sapiens, UniProt P10721); assay: Inhibitory activity against c-kit autophosphorylation (MO7e cells, h-SCF); format: cell-based; settings: for IC50: MO7e cells, read-out: c-kit IC50; for inhibition at 1 µM: Mo7e, at 1000 nM
T2 construct: MO7e (human megakaryocytic leukemia cell line) which had been arrested for 20 hr; endogenous in cells; host or cells: MO7e human megakaryocytic leukemia cell line
T2 sequence (P10721 26-976): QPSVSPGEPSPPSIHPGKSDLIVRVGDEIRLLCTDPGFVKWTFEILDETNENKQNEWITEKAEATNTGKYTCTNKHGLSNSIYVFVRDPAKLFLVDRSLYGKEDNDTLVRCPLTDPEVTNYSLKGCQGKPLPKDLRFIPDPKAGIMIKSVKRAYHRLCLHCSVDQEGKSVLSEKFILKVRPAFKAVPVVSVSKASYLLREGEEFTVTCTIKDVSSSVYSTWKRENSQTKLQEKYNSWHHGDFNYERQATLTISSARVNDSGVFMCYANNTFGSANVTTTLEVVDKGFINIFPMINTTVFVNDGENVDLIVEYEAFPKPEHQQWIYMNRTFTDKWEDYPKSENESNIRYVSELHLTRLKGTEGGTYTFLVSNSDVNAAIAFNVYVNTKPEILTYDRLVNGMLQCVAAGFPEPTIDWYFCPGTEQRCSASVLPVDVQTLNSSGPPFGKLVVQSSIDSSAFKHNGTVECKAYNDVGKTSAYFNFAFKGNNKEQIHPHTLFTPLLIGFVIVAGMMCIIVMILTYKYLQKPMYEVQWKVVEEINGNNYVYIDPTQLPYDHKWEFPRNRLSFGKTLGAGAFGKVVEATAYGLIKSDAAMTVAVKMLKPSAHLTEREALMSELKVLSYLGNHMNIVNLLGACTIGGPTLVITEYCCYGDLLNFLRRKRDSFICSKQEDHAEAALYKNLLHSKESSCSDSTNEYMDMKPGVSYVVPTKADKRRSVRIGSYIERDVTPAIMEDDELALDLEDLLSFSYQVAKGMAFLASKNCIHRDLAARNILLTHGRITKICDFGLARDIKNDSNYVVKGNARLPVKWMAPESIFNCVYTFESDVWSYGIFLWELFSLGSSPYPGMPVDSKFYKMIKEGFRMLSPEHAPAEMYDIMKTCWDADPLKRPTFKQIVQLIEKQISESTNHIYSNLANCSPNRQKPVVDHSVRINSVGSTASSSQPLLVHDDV
Procedure, shortened: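 First, human megakaryocytic leukemia MO7e cells arrested 20 hr receive compound for one hour. Second, SCF stimulation (50 ng/ml) runs 5 min, after which cells are solubilized. Third, tyrosine-phosphorylated c-kit in the lysate is quantified by sandwich ELISA with absorbance at 450 nm.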

[1] = figure within parentheses in −( ) or >1000( )

COc1cc2nccc(Oc3ccc(NC(=O)OCCCCCCN(C)C)c(C)c3C)c2cc1OC [Example 311, 6-(Dimethylamino)hexyl N-{4-[(6,7-dimethoxy-4-quinolyl)oxy]-2,3-dimethylphenyl}carbamate]
IC50 (PDGF-Ra; Pharmacological Test Example 1): < 10 nM | IC50 (c-kit; h-SCF 50 ng/ml): 329 nM

COc1cc2ncnc(Oc3ccc(NC(=O)NCCN4CCCC4)c([N+](=O)[O-])c3)c2cc1OC [Example 653, N-{4-[(6,7-Dimethoxy-4-quinazolinyl)oxy]-2-nitrophenyl}-N′-(2-tetrahydro-1H-1-pyrrolylethyl)urea]
IC50 (PDGF-Ra): 23 nM | IC50 (c-kit; 50 ng/ml h-SCF): 581 nM

COc1cc2nccc(Oc3cc(C)c(NC(=O)OCCCSc4ccc(C)cc4)cc3C)c2cc1OC [Example 39, 3-[(4-Methylphenyl)sulfanyl)propyl N-{4-[(6,7-dimethoxy-4-quinolyl)oxy]-2,5-dimethylphenyl}-carbamate]
IC50 (PDGF-Ra; Pharmacological Test Example 1): < 10 nM | IC50 (c-kit; h-SCF 50 ng/ml): 56 nM

COc1cc2ncnc(Oc3ccc(NC(=O)OCCCSc4ccc(C(C)(C)C)cc4)c(Cl)c3)c2cc1OC [Example 76, 3-{[4-(Tert-butyl)phenyl]sulfanyl}propyl N-{2-chloro-4-[(6,7-dimethoxy-4-quinazolinyl)oxy]phenyl}carbamate]
inhibition at 0.1 µM (PDGF-Ra; figure in parentheses in >100( )): 37% | IC50 (PDGF-Ra; Pharmacological Test Example 1): > 100 nM | inhibition at 1 µM (c-kit; figure in parentheses in −( )): 14%

COc1cc2nccc(Oc3ccc(NC(=O)OCCCOc4ccc(Cl)cc4)c(C)c3C)c2cc1OC [Example 28, 3-(4-Chlorophenoxy)propyl N-{4-[(6,7-dimethoxy-4-quinolyl)oxy]-2,3-dimethylphenyl}carbamate]
IC50 (PDGF-Ra; Pharmacological Test Example 1): < 10 nM | IC50 (c-kit; h-SCF 50 ng/ml): 118 nM

C#CCC(CC)OC(=O)Nc1ccc(Oc2ncnc3cc(OC)c(OC)cc23)cc1[N+](=O)[O-] (stereo not shown) [Example 510, 1-Ethyl-3-butynyl N-{4-[(6,7-dimethoxy-4-quinazolinyl)oxy]-2-nitrophenyl}carbamate]
IC50 (PDGF-Ra): > 100 nM | inhibition at 0.1 µM (PDGF-Ra; figure within parentheses in >100( )): 3% | inhibition at 1 µM (c-kit; [1]): 17%

COc1cc2ncnc(Oc3ccc(NC(=O)OC4CCCC4)c(Cl)c3)c2cc1OC [Example 367, Cyclopentyl N-{2-chloro-4-[(6,7-dimethoxy-4-quinazolinyl)oxy]phenyl}carbamate]
IC50 (PDGF-Ra; Pharmacological Test Example 1): 55 nM | IC50 (c-kit; h-SCF 50 ng/ml): 207 nM

COc1cc2ncnc(Oc3ccc(NC(=O)OC(C)c4cccc(Br)c4)cc3)c2cc1OC (stereo not shown) [Example 120, 1-(3-Bromophenyl)ethyl N-{4-[(6,7-dimethoxy-4-quinazolinyl)oxy]phenyl}carbamate]
IC50 (PDGF-Ra; Pharmacological Test Example 1): 13 nM | IC50 (c-kit; h-SCF 50 ng/ml): 505 nM

CCCCN(CCCC)CCNC(=O)Nc1ccc(Oc2ccnc3cc(OC)c(OC)cc23)c(C)c1C [Example 684, N-[2-(Dibutylamino)ethyl]-N′-{4-[(6,7-dimethoxy-4-quinolyl)oxy]-2,3-dimethylphenyl}urea]
IC50 (PDGF-Ra): 52 nM | IC50 (c-kit; 50 ng/ml h-SCF): 549 nM

COc1ccccc1COC(=O)Nc1ccc(Oc2ccnc3cc(OC)c(OC)cc23)cc1 [Example 248, 2-Methoxybenzyl N-{4-[(6,7-dimethoxy-4-quinolyl)oxy]phenyl}carbamate]
IC50 (PDGF-Ra; Pharmacological Test Example 1): 11 nM | IC50 (c-kit; h-SCF 50 ng/ml): 147 nM

CCCCc1ccc(OC(=O)Nc2cc(C)c(Oc3ccnc4cc(OC)c(OC)cc34)cc2C)cc1 [Example 272, 4-Butylphenyl N-{4-[(6,7-dimethoxy-4-quinolyl)oxy]-2,5-dimethylphenyl}carbamate]
IC50 (PDGF-Ra; Pharmacological Test Example 1): 61 nM | IC50 (c-kit; h-SCF 50 ng/ml): 297 nM

C#CCC(CC)OC(=O)N(C)c1ccc(Oc2ccnc3cc(OC)c(OC)cc23)cc1 (stereo not shown) [Example 496, 1-Ethyl-3-butynyl N-{4-[(6,7-dimethoxy-4-quinolyl)oxy]phenyl}-N-methylcarbamate]
IC50 (PDGF-Ra): 45 nM | inhibition at 1 µM (c-kit; [1]): 32%

CCCCC(CC)OC(=O)Nc1ccc(Oc2ncnc3cc(OC)c(OC)cc23)cc1 (stereo not shown) [Example 401, 1-Ethylpentyl N-{4-[(6,7-dimethoxy-4-quinazolinyl)oxy]phenyl}carbamate]
IC50 (PDGF-Ra): < 10 nM | IC50 (c-kit; 50 ng/ml h-SCF): 586 nM

CCN(CCNC(=O)Nc1ccc(Oc2ccnc3cc(OC)c(OC)cc23)cc1)c1cccc(C)c1 [Example 661, N-{4-[(6,7-Dimethoxy-4-quinolyl)oxy]phenyl}-N′-[2-(ethyl-3-methylanilino)ethyl]urea]
IC50 (PDGF-Ra): < 10 nM | IC50 (c-kit; 50 ng/ml h-SCF): 75 nM

COc1cc2ncnc(Oc3ccc(NC(=O)OCCCc4ccccc4)c(Cl)c3)c2cc1OC [Example 379, 3-Phenylpropyl N-{2-chloro-4-[(6,7-dimethoxy-4-quinazolinyl)oxy]phenyl}carbamate]
IC50 (PDGF-Ra; Pharmacological Test Example 1): 11 nM | IC50 (c-kit; h-SCF 50 ng/ml): 624 nM

COc1ccc(CCC(=O)NC(=S)Nc2ccc(Oc3ncnc4cc(OC)c(OC)cc34)cc2)cc1OC [Example 713, N-[3-(3,4-Dimethoxyphenyl)propanoyl]-N′-{4-[(6,7-dimethoxy-4-quinazolinyl)oxy]phenyl}thiourea]
IC50 (PDGF-Ra): 67 nM | IC50 (c-kit; 50 ng/ml h-SCF): 89 nM

COc1cc2nccc(Oc3cc(C)c(NC(=O)OCCCOc4cccc(F)c4)cc3C)c2cc1OC [Example 149, 3-(3-Fluorophenoxy)propyl N-{4-[(6,7-dimethoxy-4-quinolyl)oxy]-2,5-dimethylphenyl}carbamate]
IC50 (PDGF-Ra; Pharmacological Test Example 1): 19 nM | IC50 (c-kit; h-SCF 50 ng/ml): 49 nM

COc1ccc(COC(=O)Nc2ccc(Oc3ccnc4cc(OC)c(OC)cc34)cc2)cc1 [Example 249, 4-Methoxybenzyl N-{4-[(6,7-dimethoxy-4-quinolyl)oxy]phenyl}carbamate]
IC50 (PDGF-Ra; Pharmacological Test Example 1): 4 nM | IC50 (c-kit; h-SCF 50 ng/ml): 57 nM

COc1cc2ncnc(Oc3ccc(NC(=O)NC4CC(C)(C)NC(C)(C)C4)cc3)c2cc1OC [Example 563, N-{4-[(6,7-Dimethoxy-4-quinazolinyl)oxy]phenyl}-N′-(2,2,6,6-tetramethyl-4-piperidyl)urea]
IC50 (PDGF-Ra): 54 nM | IC50 (c-kit; 50 ng/ml h-SCF): 406 nM

COc1cc2nccc(Oc3ccc(NC(=S)NC(=O)CCc4ccccc4)cc3F)c2cc1OC [Example 1028, N-{4-[(6,7-Dimethoxy-4-quinolyl)oxy]-3-fluorophenyl}-N′-(3-phenylpropanoyl)thiourea]
IC50 (PDGF-Ra): < 10 nM | IC50 (c-kit; h-SCF stimulation): 545 nM

COc1cc2ncnc(Oc3ccc(NC(=O)N[C@@H]4CCN(Cc5ccccc5)C4)cc3)c2cc1OC [Example 566, N-[(3R)-1-Benzyltetrahydro-1H-3-pyrrolyl]-N′-{4-[(6,7-dimethoxy-4-quinazolinyl)oxy]phenyl}urea]
IC50 (PDGF-Ra): 17 nM | IC50 (c-kit; 50 ng/ml h-SCF): 276 nM

C#CCC(CC)OC(=O)Nc1ccc(Oc2ccnc3cc(OC)c(OC)cc23)c(C)c1C (stereo not shown) [Example 410, 1-Ethyl-3-butynyl N-{4-[(6,7-dimethoxy-4-quinolyl)oxy]-2,3-dimethylphenyl}carbamate]
IC50 (PDGF-Ra): 12 nM | IC50 (c-kit; 50 ng/ml h-SCF): 79 nM

CCN(CCNC(=O)Nc1ccc(Oc2ccnc3cc(OC)c(OC)cc23)c(C)c1C)c1cccc(C)c1 [Example 663, N-{4-[(6,7-Dimethoxy-4-quinolyl)oxy]-2,3-dimethylphenyl}-N′-[2-(ethyl-3-methylanilino)ethyl]urea]
IC50 (PDGF-Ra): < 10 nM | IC50 (c-kit; 50 ng/ml h-SCF): 202 nM

COc1cc2nccc(Oc3cc(C)c(NC(=O)OCCCOc4ccc(F)cc4)cc3C)c2cc1OC [Example 154, 3-(4-Fluorophenoxy)propyl N-{4-[(6,7-dimethoxy-4-quinolyl)oxy]-2,5-dimethylphenyl}carbamate]
IC50 (PDGF-Ra; Pharmacological Test Example 1): 40 nM | IC50 (c-kit; h-SCF 50 ng/ml): 61 nM

COc1cc2nccc(Oc3ccc(NC(=O)OCN4C(=O)c5ccccc5C4=O)c(C)c3C)c2cc1OC [Example 418, (1,3-Dioxo-2,3-dihydro-1H-2-isoindolyl)methyl N-{4-[(6,7-dimethoxy-4-quinolyl)oxy]-2,3-dimethylphenyl}carbamate]
IC50 (PDGF-Ra): 26 nM | IC50 (c-kit; 50 ng/ml h-SCF): 401 nM

COc1cc2ncnc(Oc3ccc(NC(=O)Oc4ccccc4OC)cc3)c2cc1OC [Example 403, 2-Methoxyphenyl N-{4-[(6,7-dimethoxy-4-quinazolinyl)oxy]phenyl}carbamate]
IC50 (PDGF-Ra): 14 nM | IC50 (c-kit; 50 ng/ml h-SCF): 93 nM

COc1cc2nccc(Oc3ccc(NC(=O)OCc4ccccc4Cl)c(C)c3C)c2cc1OC [Example 235, 2-Chlorobenzyl N-{4-[(6,7-dimethoxy-4-quinolyl)oxy]-2,3-dimethylphenyl}carbamate]
IC50 (PDGF-Ra; Pharmacological Test Example 1): < 3 nM | IC50 (c-kit; h-SCF 50 ng/ml): 57 nM

COc1cc2nccc(Oc3ccc(NC(=S)NC(=O)C4CC4c4ccccc4)cc3)c2cc1OC (stereo not shown) [Example 1055, N-{4-[(6,7-Dimethoxy-4-quinolyl)oxy]phenyl}-N′-[(2-phenylcyclopropyl)carbonyl]thiourea]
IC50 (PDGF-Ra): 16 nM | IC50 (c-kit; h-SCF stimulation): 312 nM

COc1cc2ncnc(Oc3ccc(NC(=O)OCCCOc4cccc(F)c4)cc3)c2cc1OC [Example 150, 3-(3-Fluorophenoxy)propyl N-{4-[(6,7-dimethoxy-4-quinazolinyl)oxy]phenyl}carbamate]
IC50 (PDGF-Ra; Pharmacological Test Example 1): < 10 nM | IC50 (c-kit; h-SCF 50 ng/ml): 38 nM

COc1ccccc1COC(=O)Nc1ccc(Oc2ncnc3cc(OC)c(OC)cc23)cc1Cl [Example 316, 2-Methoxybenzyl N-{2-chloro-4-[(6,7-dimethoxy-4-quinazolinyl)oxy]phenyl}carbamate]
IC50 (PDGF-Ra; Pharmacological Test Example 1): 10 nM | inhibition at 1 µM (c-kit; figure in parentheses in −( )): 40%

COc1cc2ncnc(Oc3ccc(NC(=O)NC4CCN(Cc5ccccc5)CC4)cc3)c2cc1OC [Example 591, N-{4-[(6,7-Dimethoxy-4-quinazolinyl)oxy]phenyl}-N′-[4-(N-benzyl)piperidinyl]urea]
IC50 (PDGF-Ra): 33 nM | IC50 (c-kit; 50 ng/ml h-SCF): 117 nM
